From US20150065345A1, “1,2,4 - TRIAZOLE DERIVATIVES AS HERBICIDALS” (SYNGENTA LIMITED, priority 2012, published 2015)

Experiments:
Type in all cases: in vivo
[1] = test system: Echinochloa crus-galli (ECHCG); test: Glasshouse herbicide test, pre-emergence; conditions: 1000 g/h, evaluated after 13 days, five point scale
Method: (§1) Seeds of a variety of test species are sown in standard soil in pots Alopecurus myosuroides (ALOMY), Amaranthus retoflexus (AMARE), Setaria faberi (SETFA), Echinochloa crus-galli (ECHCG), Lolium perenne (LOLPE), Solanum nigrum (SOLNI), Stellaria media (STEME) and Digitaria sanguinalis (DIGSA). After cultivation for one day (pre-emergence) or after 8 days cultivation (post-emergence) under controlled conditions in a glasshouse (at 24/16° C., day/night; 14 hours light; 65% humidity), the plants are sprayed with an aqueous spray solution derived from the formulation of the technical active ingredient in acetone/water (50:50) solution containing 0.5% Tween 20 (polyoxyethelyene sorbitan monolaurate, CAS RN 9005-64-5). Compounds are applied at 1000 g/h. The test plants are then grown in a glasshouse under controlled conditions in a glasshouse (at 24/16° C., day/night; 14 hours light; 65% humidity) and watered twice daily. After 13 days for pre and post-emergence, the test is evaluated for the percentage damage caused to the plant. The biological activities are shown in the following table on a five point scale (5=80-100%; 4=60-79%; 3=40-59%; 2=20-39%; 1=0-19%).

[2] = test system: Amaranthus retoflexus (AMARE); test: Glasshouse herbicide test, pre-emergence; conditions: 1000 g/h, evaluated after 13 days, five point scale, second table
Method: as §1

[3] = test system: Solanum nigrum (SOLNI); test: Glasshouse herbicide test, pre-emergence; conditions: 1000 g/h, evaluated after 13 days, five point scale
Method: as §1

[4] = test system: Setaria faberi (SETFA); test: Glasshouse herbicide test, pre-emergence; conditions: 1000 g/h, evaluated after 13 days, five point scale
Method: as §1

[5] = test system: Alopecurus myosuroides (ALOMY); test: Glasshouse herbicide test, pre-emergence; conditions: 1000 g/h, evaluated after 13 days, five point scale
Method: as §1

[6] = test system: IPOHE; test: Glasshouse herbicide test, pre-emergence; conditions: 1000 g/h, evaluated after 13 days, five point scale
Method: [The procedure below names another species; the source lists this species under the same test.] as §1

[7] = test system: Echinochloa crus-galli (ECHCG); test: Glasshouse herbicide test, post-emergence; conditions: 1000 g/h, evaluated after 13 days, five point scale
Method: as §1

[8] = test system: Amaranthus retoflexus (AMARE); test: Glasshouse herbicide test, post-emergence; conditions: 1000 g/h, evaluated after 13 days, five point scale, second table
Method: as §1

[9] = test system: Solanum nigrum (SOLNI); test: Glasshouse herbicide test, post-emergence; conditions: 1000 g/h, evaluated after 13 days, five point scale
Method: as §1

[10] = test system: Setaria faberi (SETFA); test: Glasshouse herbicide test, post-emergence; conditions: 1000 g/h, evaluated after 13 days, five point scale
Method: as §1

[11] = test system: Alopecurus myosuroides (ALOMY); test: Glasshouse herbicide test, post-emergence; conditions: 1000 g/h, evaluated after 13 days, five point scale
Method: as §1

[12] = test system: IPOHE; test: Glasshouse herbicide test, post-emergence; conditions: 1000 g/h, evaluated after 13 days, five point scale
Method: [The procedure below names another species; the source lists this species under the same test.] as §1

SMILES | percentage damage caused to the plant, ECHCG, PRE Application [1] | percentage damage caused to the plant, AMARE, PRE Application [2] | percentage damage caused to the plant, SOLNI, PRE Application [3] | percentage damage caused to the plant, SETFA, PRE Application [4] | percentage damage caused to the plant, ALOMY, PRE Application [5] | percentage damage caused to the plant, IPOHE, PRE Application [6] | percentage damage caused to the plant, ECHCG, POST Application [7] | percentage damage caused to the plant, AMARE, POST Application [8] | percentage damage caused to the plant, SOLNI, POST Application [9] | percentage damage caused to the plant, SETFA, POST Application [10] | percentage damage caused to the plant, ALOMY, POST Application [11] | percentage damage caused to the plant, IPOHE, POST Application [12]
Cn1cnnc1NC(=O)c1ccc(C(F)(F)F)cc1S(C)(=O)=O [Compound 1.008] | 5 (5=80-100%) | 5 (5=80-100%) | 5 (5=80-100%) | 3 (3=40-59%) | 2 (2=20-39%) | 4 (4=60-79%) | 4 (4=60-79%) | 5 (5=80-100%) | 5 (5=80-100%) | 3 (3=40-59%) | 3 (3=40-59%) | 5 (5=80-100%)
Cc1nnc(NC(=O)c2ccc(C(F)(F)F)cc2S(C)(=O)=O)n1C [Compound 1.009] | 1 (1=0-19%) | 4 (4=60-79%) | 2 (2=20-39%) | 1 (1=0-19%) | 1 (1=0-19%) | 1 (1=0-19%) | 1 (1=0-19%) | 2 (2=20-39%) | 4 (4=60-79%) | 1 (1=0-19%) | 2 (2=20-39%) | 3 (3=40-59%)
CCc1nnc(NC(=O)c2ccc(C(F)(F)F)cc2S(C)(=O)=O)n1C [Compound 1.010] | 1 (1=0-19%) | 1 (1=0-19%) | 1 (1=0-19%) | 1 (1=0-19%) | 1 (1=0-19%) | 1 (1=0-19%) | 2 (2=20-39%) | 1 (1=0-19%) | 2 (2=20-39%) | 2 (2=20-39%) | 2 (2=20-39%) | 2 (2=20-39%)
CCn1cnnc1NC(=O)c1ccc(C(F)(F)F)cc1S(C)(=O)=O [Compound 1.011] | 4 (4=60-79%) | 5 (5=80-100%) | 5 (5=80-100%) | 2 (2=20-39%) | 1 (1=0-19%) | 4 (4=60-79%) | 4 (4=60-79%) | 5 (5=80-100%) | 5 (5=80-100%) | 2 (2=20-39%) | 2 (2=20-39%) | 5 (5=80-100%)
CCc1nnc(NC(=O)c2ccc(S(C)(=O)=O)c(COCC(F)(F)F)c2Cl)n1C [Compound 1.013] | 1 (1=0-19%) | 1 (1=0-19%) | 1 (1=0-19%) | 1 (1=0-19%) | 1 (1=0-19%) | 1 (1=0-19%) | 1 (1=0-19%) | 1 (1=0-19%) | 2 (2=20-39%) | 1 (1=0-19%) | 2 (2=20-39%) | 1 (1=0-19%)
